How the values were obtained:
[1] = tested on: Pseudomonas aeruginosa (AY); assay: MBC (minimum bactericidal concentration) test in Wash NEXT reagent; assay type: cell-based
Method: (§1) The stock organisms were thawed and subbed prior to beginning the MBC test. Molds were subbed to SDA plates one week before, and the bacteria were subbed to TAT agar plates 24 hours prior to the start of the test. All plates were incubated at 32 degrees C.
Each bacterial organism was inoculated into 40 ml sterile saline in a centrifuge tube to create a density of MacFarland #1. Two serial dilutions of 1:100 were then made, resulting in 10^−2 and 10^−4 concentrations. Each dilution was vortexed before it was sampled, and sterile Eppendorf pipette tips were used to make each transfer. The 10^−4 dilution was spiral plated to yield the initial inoculum concentration.
(§2) MBC trays were set up with the prepared test reagent. Using a Matrix pipettor, 100 μl aliquots of reagent were distributed into the wells, diluting the amount of preservative from 100% to 10% increments, using unpreserved reagent as the diluent. In one row, 100% non-preserved reagent acted as a positive control and served as a benchmark for a full mat of growth. In well #12H, 100 μl unpreserved reagent was pipetted, and this well was not inoculated with organisms, as it served as the negative control. Once all of the trays were prepared, the prepared bacteria/mold suspensions were poured into the MBC inoculating trays. These were placed onto the reagent trays, and 0.01 ml inoculum was introduced into the 100 μl of reagent in each well.
(§3) This was done by dipping a sterile cotton swab into each well, and absorbing all of the liquid in the well. The swab was rolled onto a TAT agar plate ensuring that the entire swab touches the agar. Plates ware incubated at 32 degrees C. for 48 hours to 7 days, depending on the organism. Observations for growth were performed by a scoring matrix using + for a full mat, +/− for some growth, a numerical value for an actual colony count, and—for no growth.
(§4) Below are tables that contain the data obtained in Example 1. The MBC test is scored by (+) indicating a full grown mat of organisms, equivalent to the organisms in the unpreserved reagent. (+/−) indicates there is some kill evident disturbing that mat or bringing the quantities down to an almost countable level. An actual number is the actual number of colonies growing at that concentration of preservative. (−) indicates no growth found. The MBC trays were stored at room temperature for the entire test.
(§5) The materials and methods and analysis of the MBC test were the same as in Example 1.

[2] = tested on: Penicillium notatum-KMO (R); assay: as above; assay type: cell-based; design: key to MBC test growth score: number = actual colony count; + full mat, − no growth
Method: as §1
For the molds, each organism was inoculated into 40 ml sterile saline in a centrifuge tube to create a density of MacFarland #5. Two serial dilutions of 1:100 were then made, resulting in 10^−2 and 10^−4 concentrations. Each dilution was vortexed before it was sampled, and sterile Eppendorf pipette tips were used to make each transfer. The 10^−4 dilution was spiral plated to yield the initial inoculum concentration.
as §2, §3, §4, §5

## Cc1cc(NS(=O)(=O)c2ccc(N)cc2)no1 [Sulfamethoxazole, sulfamethoxazole]
[1]; 10% preservative, 8 hour
  MBC test growth score: +
[1]; 10% preservative, 24 hour
  MBC test growth score: +
[1]; 10% preservative, 48 hour
  MBC test growth score: +
[1]; 10% preservative, 72 hour
  MBC test growth score: +
[1]; 20% preservative, 8 hour
  MBC test growth score: +
[1]; 20% preservative, 24 hour
  MBC test growth score: +
[1]; 20% preservative, 48 hour
  MBC test growth score: +
[1]; 20% preservative, 72 hour
  MBC test growth score: +
[1]; 30% preservative, 8 hour
  MBC test growth score: +
[1]; 30% preservative, 24 hour
  MBC test growth score: +
[1]; 30% preservative, 48 hour
  MBC test growth score: +
[1]; 30% preservative, 72 hour
  MBC test growth score: +
[1]; 40% preservative, 8 hour
  MBC test growth score: +
[1]; 40% preservative, 24 hour
  MBC test growth score: +
[1]; 40% preservative, 48 hour
  MBC test growth score: +
[1]; 40% preservative, 72 hour
  MBC test growth score: +
[1]; 50% preservative, 8 hour
  MBC test growth score: +
[1]; 50% preservative, 24 hour
  MBC test growth score: +
[1]; 50% preservative, 48 hour
  MBC test growth score: +
[1]; 50% preservative, 72 hour
  MBC test growth score: +
[1]; 60% preservative, 8 hour
  MBC test growth score: +
[1]; 60% preservative, 24 hour
  MBC test growth score: +
[1]; 60% preservative, 48 hour
  MBC test growth score: +
[1]; 60% preservative, 72 hour
  MBC test growth score: +
[1]; 70% preservative, 8 hour
  MBC test growth score: +
[1]; 70% preservative, 24 hour
  MBC test growth score: +
[1]; 70% preservative, 48 hour
  MBC test growth score: +
[1]; 70% preservative, 72 hour
  MBC test growth score: +
[1]; 80% preservative, 8 hour
  MBC test growth score: +
[1]; 80% preservative, 24 hour
  MBC test growth score: +
[1]; 80% preservative, 48 hour
  MBC test growth score: +
[1]; 80% preservative, 72 hour
  MBC test growth score: +
[1]; 90% preservative, 8 hour
  MBC test growth score: +
[1]; 90% preservative, 24 hour
  MBC test growth score: +
[1]; 90% preservative, 48 hour
  MBC test growth score: +
[1]; 90% preservative, 72 hour
  MBC test growth score: +
[1]; 100% preservative, 8 hour
  MBC test growth score: +
[1]; 100% preservative, 24 hour
  MBC test growth score: +
[1]; 100% preservative, 48 hour
  MBC test growth score: +
[1]; 100% preservative, 72 hour
  MBC test growth score: +
[2]; 10% preservative, 8 hour
  MBC test growth score: +
[2]; 10% preservative, 24 hour
  MBC test growth score: +
[2]; 10% preservative, 48 hour
  MBC test growth score: +/−
[2]; 10% preservative, 72 hour
  MBC test growth score: +
[2]; 10% preservative, 7 day
  MBC test growth score: +
[2]; 10% preservative, 14 day
  MBC test growth score: +/−
[2]; 20% preservative, 8 hour
  MBC test growth score: +
[2]; 20% preservative, 24 hour
  MBC test growth score: +
[2]; 20% preservative, 48 hour
  MBC test growth score: +/−
[2]; 20% preservative, 72 hour
  MBC test growth score: +/−
[2]; 20% preservative, 7 day
  MBC test growth score: +/−
[2]; 20% preservative, 14 day
  MBC test growth score: 31
[2]; 30% preservative, 8 hour
  MBC test growth score: +
[2]; 30% preservative, 24 hour
  MBC test growth score: +
[2]; 30% preservative, 48 hour
  MBC test growth score: +/−
[2]; 30% preservative, 72 hour
  MBC test growth score: +/−
[2]; 30% preservative, 7 day
  MBC test growth score: +/−
[2]; 30% preservative, 14 day
  MBC test growth score: 28
[2]; 40% preservative, 8 hour
  MBC test growth score: +
[2]; 40% preservative, 24 hour
  MBC test growth score: +
[2]; 40% preservative, 48 hour
  MBC test growth score: +/−
[2]; 40% preservative, 72 hour
  MBC test growth score: +/−
[2]; 40% preservative, 7 day
  MBC test growth score: +/−
[2]; 40% preservative, 14 day
  MBC test growth score: 25
[2]; 50% preservative, 8 hour
  MBC test growth score: +
[2]; 50% preservative, 24 hour
  MBC test growth score: +
[2]; 50% preservative, 48 hour
  MBC test growth score: +/−
[2]; 50% preservative, 72 hour
  MBC test growth score: +/−
[2]; 50% preservative, 7 day
  MBC test growth score: +/−
[2]; 50% preservative, 14 day
  MBC test growth score: 18
[2]; 60% preservative, 8 hour
  MBC test growth score: +
[2]; 60% preservative, 24 hour
  MBC test growth score: +
[2]; 60% preservative, 48 hour
  MBC test growth score: +/−
[2]; 60% preservative, 72 hour
  MBC test growth score: +/−
[2]; 60% preservative, 7 day
  MBC test growth score: +/−
[2]; 70% preservative, 8 hour
  MBC test growth score: +
[2]; 70% preservative, 24 hour
  MBC test growth score: +
[2]; 70% preservative, 48 hour
  MBC test growth score: +/−
[2]; 70% preservative, 72 hour
  MBC test growth score: 18
[2]; 70% preservative, 7 day
  MBC test growth score: 9
[2]; 70% preservative, 14 day
  MBC test growth score: 10
[2]; 80% preservative, 8 hour
  MBC test growth score: +
[2]; 80% preservative, 24 hour
  MBC test growth score: +
[2]; 80% preservative, 48 hour
  MBC test growth score: +/−
[2]; 80% preservative, 7 day
  MBC test growth score: 8
[2]; 80% preservative, 14 day
  MBC test growth score: 6
[2]; 90% preservative, 8 hour
  MBC test growth score: +
[2]; 90% preservative, 24 hour
  MBC test growth score: +
[2]; 90% preservative, 48 hour
  MBC test growth score: +/−
[2]; 90% preservative, 72 hour
  MBC test growth score: 10
[2]; 90% preservative, 7 day
  MBC test growth score: 7
[2]; 90% preservative, 14 day
  MBC test growth score: 3
[2]; 100% preservative, 8 hour
  MBC test growth score: +
[2]; 100% preservative, 24 hour
  MBC test growth score: +
[2]; 100% preservative, 48 hour
  MBC test growth score: +/−
[2]; 100% preservative, 72 hour
  MBC test growth score: 7
[2]; 100% preservative, 7 day
  MBC test growth score: 4
[2]; 100% preservative, 14 day
  MBC test growth score: 2
